We go through four molecules from patent publication US20030161867A1, “Skin-permeable selective cyclooxygenase-2 inhibitor composition” (priority 2001, published 2003).

Data set [1] in a line: Skin permeation (skin flux) in Franz diffusion cell. The data set is classed as in vitro ADME, human. The conditions noted are these: for Normalized skin flux: normalized to a standard run on each skin lot. The procedure: Suitable receptor fluids can be selected by one of skill in the art, but presently preferred receptor fluids are a 1% polysorbate 80 solution and a 6% polyethylene glycol (20) oleyl ether (oleth-20) solution. The receptor fluid is maintained at a suitable temperature, preferably a temperature approximating living human skin temperature. A receptor fluid temperature of 32° C. has been found suitable. The membrane is oriented so that its internal surface, i.e., the surface opposite the epidermal surface, is placed in contact with the receptor fluid. Air bubbles are removed from the receptor fluid, which is then allowed to equilibrate for 30 minutes with the membrane. A test sample of a composition is placed in contact with the epidermal surface of the membrane, and left in place for a desired period, for example 24 hours. […] The receptor compartment of the Franz diffusion cell was filled with the receptor fluid and the diffusion cell was maintained at 32° C. The membrane was mounted on the receptor compartment, covered and fastened with a clamp. Air bubbles were removed from the receptor fluid, which was allowed to equilibrate for 30 minutes. A test composition was brought into contact with the membrane. […] Each test was conducted in several replicates.

Data set [2] can be described thus: Drug concentration of saturated solutions. The class given is physicochemical. The protocol:
Saturated solutions of celecoxib were prepared in the following solvents: 70% aqueous ethanol (EtOH), ethanol, PEG-400 and propylene glycol (PG). The solutions were tested for skin permeation properties as described above, using 250 μl drops of each test solution.
Since different lots of skin were used to determine the skin flux of each compound, a standard was run on each skin lot and the data were normalized.
The solutions were tested for skin permeation properties as described above.

Data set [3] in a line: Skin permeation (skin flux) in Franz diffusion cell. The conditions noted are these: saturated aqueous solution, 50° C. The class given is in vitro ADME, human.
The target of another data set is COX-1 (Homo sapiens, UniProt P23219). The conditions noted are these: in vitro; cited from earlier work.
The nature of data set [4]: Distribution of drug in epidermis and dermis after Franz cell skin permeation test. The class given is in vitro ADME, human. From the text: As a way of measuring the skin permeation properties of selective COX-2 inhibitory drugs or prodrugs in dermally deliverable pharmaceutical compositions, a Franz diffusion cell was provided utilizing a human cadaver skin membrane and a 1% polysorbate 80 (Tween™ 80) solution as a receptor fluid. Frozen skin was thawed at room temperature and punched with a 20 mm puncher to provide a membrane. The receptor compartment of the Franz diffusion cell was filled with the receptor fluid and the diffusion cell was maintained at 32° C. The membrane was mounted on the receptor compartment, covered and fastened with a clamp. Air bubbles were removed from the receptor fluid, which was allowed to equilibrate for 30 minutes. A test composition was brought into contact with the membrane. The amount of drug which permeated through the membrane in a 24 hour period was determined by HPLC analysis of the receptor fluid. Each test was conducted in several replicates.
Distribution of drug in epidermis and dermis was also determined. Results are shown in Table 6, by comparison with the solution compositions of Examples 1 and 2.

A further data set deals with T1, COX-2 (Homo sapiens, UniProt P35354).
T1 sequence (P35354 18-604): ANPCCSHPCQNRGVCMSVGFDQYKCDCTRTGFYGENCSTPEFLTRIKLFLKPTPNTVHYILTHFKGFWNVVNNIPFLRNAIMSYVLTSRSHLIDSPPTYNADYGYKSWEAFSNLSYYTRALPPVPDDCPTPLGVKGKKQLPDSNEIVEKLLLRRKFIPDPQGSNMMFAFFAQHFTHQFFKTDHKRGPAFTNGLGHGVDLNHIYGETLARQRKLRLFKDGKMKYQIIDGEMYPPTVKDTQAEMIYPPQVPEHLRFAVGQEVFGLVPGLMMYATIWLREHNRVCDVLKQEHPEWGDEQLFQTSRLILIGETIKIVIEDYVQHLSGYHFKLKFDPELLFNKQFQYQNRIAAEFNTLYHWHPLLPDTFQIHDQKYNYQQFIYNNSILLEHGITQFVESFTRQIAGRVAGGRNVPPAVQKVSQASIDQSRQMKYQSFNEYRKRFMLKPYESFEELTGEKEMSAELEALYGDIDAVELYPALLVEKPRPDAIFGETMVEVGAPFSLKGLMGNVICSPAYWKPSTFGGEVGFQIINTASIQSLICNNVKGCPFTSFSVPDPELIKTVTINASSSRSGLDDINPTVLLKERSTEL
The conditions noted are these: in vitro; cited from earlier work.

Where [5] appears, read: 5% oleyl alcohol and 3% thymol in 70% aqueous ethanol, versus skin flux data in Table 2.
Where [6] appears, read: saturated solution in 70% aqueous ethanol containing 5% oleyl alcohol and 3% thymol, 250 μl.
Where [7] appears, read: saturated solution in 70% aqueous ethanol, 250 μl, occlusive, 24 hour period, 32° C.
The mark [8] stands for this setting: saturated solution in 70% aqueous ethanol.
The mark [9] stands for this setting: Valdecoxib + parecoxib Na composition: saturated valdecoxib in 67% aqueous ethanol containing 5% parecoxib sodium.
Setting [10] is: gel, 1% drug (10 mg/ml) in 70% aqueous ethanol with 3% Klucel, 50 mg applied, non-occlusive.
Setting [11] is: saturated aqueous solution, 32° C.
Where [12] appears, read: saturated solution in 70% aqueous ethanol, skin donor 3.
[13] abbreviates: saturated solution in 70% aqueous ethanol, skin donor 4.
Where [14] appears, read: saturated solution in PEG-400, 250 μl, 24 hour period.
Setting [15] is: saturated solution in ethanol (EtOH), 250 μl, 24 hour period.
Where [16] appears, read: saturated solution in propylene glycol (PG), 250 μl, 24 hour period.
Where [17] appears, read: with 5% parecoxib sodium in 67% aqueous ethanol, versus Table 2 data in absence of parecoxib sodium.
Setting [18] is: gel, 1% drug in 70% aqueous ethanol with 3% Klucel, 50 mg, non-occlusive.
[19] abbreviates: saturated solution in 70% aqueous ethanol, 250 μl, occlusive.
[20] abbreviates: Celecoxib + parecoxib Na composition: saturated celecoxib in 67% aqueous ethanol containing 5% parecoxib sodium.

Each structure is given as a SMILES string. Where “and” joins values, the source holds several entries; their conditions need not be identical. Equal entries are not always repeated.

Sequence of COX-1 (P23219 24-599): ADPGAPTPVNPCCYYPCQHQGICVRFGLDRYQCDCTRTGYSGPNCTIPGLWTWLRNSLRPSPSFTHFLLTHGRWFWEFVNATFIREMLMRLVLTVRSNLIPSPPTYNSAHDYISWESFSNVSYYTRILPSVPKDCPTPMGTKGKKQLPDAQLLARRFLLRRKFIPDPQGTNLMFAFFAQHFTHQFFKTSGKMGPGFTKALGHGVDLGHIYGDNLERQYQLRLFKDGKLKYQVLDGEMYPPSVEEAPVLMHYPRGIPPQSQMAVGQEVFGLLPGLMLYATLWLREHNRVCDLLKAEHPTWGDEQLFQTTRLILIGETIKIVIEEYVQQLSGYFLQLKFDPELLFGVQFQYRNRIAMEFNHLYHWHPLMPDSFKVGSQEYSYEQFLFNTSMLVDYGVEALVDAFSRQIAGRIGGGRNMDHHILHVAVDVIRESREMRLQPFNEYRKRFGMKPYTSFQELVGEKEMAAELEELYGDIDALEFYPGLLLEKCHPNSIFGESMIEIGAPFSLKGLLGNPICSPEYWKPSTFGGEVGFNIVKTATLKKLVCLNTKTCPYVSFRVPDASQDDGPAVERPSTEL

`CCC(=O)NS(=O)(=O)c1ccc(-c2c(-c3ccccc3)noc2C)cc1` [parecoxib Na]: the Enhancement factor in data set [1] (setting [5]) was 4.8. Moreover, the Skin flux in data set [1] (setting [6]) is 1210 ± 58.0^ μg/cm^2 · day; in data set [1] (setting [7]) it was 254 ± 164 μg/cm^2 · day. Besides, in data set [1] (setting [8]), the Normalized skin flux is 120.0 μg/cm^2 · day. The Concentration in data set [2] (setting [8]) was 386000 µg/mL.
`Cc1onc(-c2ccccc2)c1-c1ccc(S(N)(=O)=O)cc1` [valdecoxib, 4-[5-methyl-3-phenylisoxazol-4-yl]benzenesulfonamide]: the Skin flux was 42.12 ± 7.82 μg/cm^2 · day in data set [3]; 108 ± 16.7 μg/cm^2 · day in data set [1] (setting [9]); 11.3 ± 6.48 μg/cm^2 · day in data set [1] (setting [10]); 7.94 ± 0.89 μg/cm^2 · day in data set [1] (setting [11]); 323 ± 21 μg/cm^2 · day in data set [1] (setting [6]); 12.8 μg/cm^2 · day and 12.8 ± 4.96 μg/cm^2 · day in data set [1] (setting [7]). In addition, the Skin flux in data set [1] (saturated solution in 70% aqueous ethanol, 250 μl, occlusive, 24 hour period, 32° C., listed as Valdecoxib) is listed as 12.8 ± 4.96 μg/cm^2 · day; in data set [1] (saturated solution in 70% aqueous ethanol, skin donor 2), 12.8 ± 5.0 μg/cm^2 · day; in data set [1] (setting [12]) it was 91.9 ± 15.0 μg/cm^2 · day; in data set [1] (setting [13]), 58.3 ± 11.0 μg/cm^2 · day; in data set [1] (setting [14]), “No skin permeation”; in data set [1] (saturated solution in PEG-400, 250 μl, 24 hour period, listed as Valdecoxib), “ud”. Besides, the Skin flux is reported as 1.44 ± 0.54 μg/cm^2 · day in data set [1] (setting [15]); “No skin permeation” in data set [1] (setting [16]); “ud” in data set [1] (saturated solution in propylene glycol (PG), 250 μl, 24 hour period, listed as Valdecoxib). Besides, the “inhibitory activity against COX-1” value at COX-1 is reported as “weak inhibitor”. The Enhancement factor in data set [1] (setting [5]) turned out to be 25; in data set [1] (setting [17]), 8.4. For the same molecule, the Normalized skin flux in data set [1] (setting [8]) worked out at 53.4 μg/cm^2 · day. Also, the Drug in dermis result is “ud” in data set [4] (setting [18]) and 0.543 ± 0.525 µg in data set [4] (setting [19]). Further, the Drug in epidermis in data set [4] (setting [18]) worked out at 1.81 ± 1.87 µg; in data set [4] (setting [19]) it was 9.27 ± 3.84 µg.
For `Cc1ccc(-c2cc(C(F)(F)F)nn2-c2ccc(S(N)(=O)=O)cc2)cc1` [celecoxib, 4-[5-(4-methylphenyl)-3-(trifluoromethyl)-1H-pyrazol-1-yl]benzenesulfonamide], the Skin flux is 23.71 ± 4.42 μg/cm^2 · day in data set [3]; 183 ± 153 μg/cm^2 · day in data set [1] (setting [20]); 3.82 ± 3.36 μg/cm^2 · day in data set [1] (setting [10]); 4.27 ± 0.84 μg/cm^2 · day in data set [1] (setting [11]); 21.7 ± 4.6 μg/cm^2 · day in data set [1] (setting [6]); 15.7 μg/cm^2 · day and 15.7 ± 3.83 μg/cm^2 · day in data set [1] (setting [7]). Also, the Skin flux in data set [1] (saturated solution in 70% aqueous ethanol, 250 μl, occlusive, 24 hour period, 32° C., listed as Celecoxib) is on record as 15.7 ± 3.83 μg/cm^2 · day; in data set [1] (saturated solution in 70% aqueous ethanol, skin donor 1), 15.7 ± 3.8 μg/cm^2 · day; in data set [1] (setting [12]), 73.7 ± 11.8 μg/cm^2 · day; in data set [1] (setting [13]), 31.9 ± 9.6 μg/cm^2 · day; in data set [1] (saturated solution in 70% aqueous ethanol, skin donor 6), 50.4 ± 12.7 μg/cm^2 · day; in data set [1] (setting [14]), “No skin permeation”. Besides, the Skin flux result is recorded as “ud” in data set [1] (saturated solution in PEG-400, 250 μl, 24 hour period, listed as Celecoxib); 5.62 ± 1.49 μg/cm^2 · day in data set [1] (setting [15]); “No skin permeation” in data set [1] (setting [16]); “ud” in data set [1] (saturated solution in propylene glycol (PG), 250 μl, 24 hour period, listed as Celecoxib). In addition, the figures for the Enhancement factor in data set [1] (setting [5]) and in data set [1] (setting [17]) were 1.4 and 11.5, respectively. The same molecule yielded a Celecoxib permeation in data set [1] (saturated celecoxib solution in 70% ethanol, amount in receptor fluid after 15 hours) of 1.406 ± 0.086 μg/cm^2. In data set [1] (setting [8]), the Normalized skin flux is 34.9 μg/cm^2 · day. In addition, the Drug in dermis in data set [4] (setting [18]) stood at 1.22 ± 0.51 µg; in data set [4] (setting [19]), 2.50 ± 1.53 µg. Moreover, the Drug in epidermis in data set [4] (setting [18]) came to 2.36 ± 1.06 µg; in data set [4] (setting [19]) it was 3.92 ± 0.79 µg. In addition, the Concentration stood at 0.5 µg/mL in data set [2] (saturated aqueous solution); 15900 µg/mL in data set [2] (saturated in 67% aqueous ethanol containing 5% parecoxib sodium); 15200 µg/mL in data set [2] (setting [8]); 297000 µg/mL in data set [2] (saturated solution in PEG-400); 91400 µg/mL in data set [2] (saturated solution in ethanol (EtOH)); 33300 µg/mL in data set [2] (saturated solution in propylene glycol (PG)).
Take `CCC(=O)NS(=O)(=O)c1ccc(-c2c(-c3ccccc3)noc2C)cc1` [parecoxib, N-[[4-(5-methyl-3-phenylisoxazol-4-yl)phenyl]sulfonyl]propanamide]: the Skin flux is 47.16 ± 3.70 μg/cm^2 · day in data set [3], 74.7 ± 14.7 μg/cm^2 · day in data set [1] (setting [20]), 64.1 ± 11.3 μg/cm^2 · day in data set [1] (setting [9]) and 8.62 ± 1.94 μg/cm^2 · day in data set [1] (setting [11]). Besides, the “inhibitory activity against COX-2” value at COX-2 is “weak in vitro inhibitory activity”. Moreover, the “inhibitory activity against COX-1” value at COX-1 is “weak in vitro inhibitory activity”. Also, the Concentration in data set [2] (saturated aqueous solution) amounted to 50.8 µg/mL.
